Ki data for 22 compounds are collected here from patent US9029370B2, “Substituted benzamide derivatives” (Hoffmann-La Roche Inc., priority 2011, dated 2015).

One assay addresses mouse TAAR1 (Mus musculus (Mouse), UniProt Q923Y8). The assay is described as follows: Radioligand binding assay on mouse TAAR1. The following applies: mouse TAAR1, HEK-293 membranes; first value of the pair (before the slash); read-out: Ki (μM) mouse/rat. Here is the method:
(§1) For the construction of expression plasmids the coding sequences of human, rat and mouse TAAR 1 were amplified from genomic DNA essentially as described by Lindemann et al.. The Expand High Fidelity PCR System (Roche Diagnostics) was used with 1.5 mM Mg^2+ and purified PCR products were cloned into pCR2.1-TOPO cloning vector (Invitrogen) following the instructions of the manufacturer. PCR products were subcloned into the pIRESneo2 vector (BD Clontech, Palo Alto, Calif.), and expression vectors were sequence verified before introduction in cell lines.
(§2) HEK293 cells (ATCC # CRL-1573) were cultured essentially as described by Lindemann et al. (2005). For the generation of stably transfected cell lines HEK293 cells were transfected with the pIRESneo2 expression plasmids containing the TAAR coding sequences (described above) with Lipofectamine 2000 (Invitrogen) according to the instructions of the manufacturer, and 24 hrs post transfection the culture medium was supplemented with 1 mg/ml G418 (Sigma, Buchs, Switzerland). After a culture period of about 10 d clones were isolated, expanded and tested for responsiveness to trace amines (all compounds purchased from Sigma) with the cAMP Biotrak Enzyme immunoassay (EIA) System (Amersham) following the non-acetylation EIA procedure provided by the manufacturer.
Radioligand Binding Assay on Mouse TAAR1
(§3) Membrane Preparation and Radioligand Binding.
(§4) HEK-293 cells stably expressing mouse TAAR1 were maintained at 37° C. and 5% CO2 in DMEM high glucose medium, containing fetal calf serum (10%, heat inactivated for 30 min at 56° C.), penicillin/streptomycin (1%), and 375 μg/ml geneticin (Gibco). Cells were released from culture flasks using trypsin/EDTA, harvested, washed twice with ice-cold PBS (without Ca^2+ and Mg^2+), pelleted at 1′000 rpm for 5 min at 4° C., frozen and stored at −80° C. […] The homogenate was centrifuged at 48′000×g for 30 min at 4° C. Subsequently, the supernatant was removed and discarded, and the pellet resuspended in 20 ml HEPES-NaOH (20 mM, pH 7.4) containing 0.1 mM EDTA using the Polytron (20 s at 14′000 rpm). This procedure was repeated and the final pellet resuspended in HEPES-NaOH containing 0.1 mM EDTA and homogenized using the Polytron. Typically, aliquots of 2 ml membrane portions were stored at −80° C. With each new membrane batch the dissociation constant (Kd) was determined via a saturation curve. […] Nonspecific binding was defined as the amount of ^3[H]-(S)-4-[(ethyl-phenyl-amino)-methyl]-4,5-dihydro-oxazol-2-ylamine bound in the presence of 10 μM unlabeled ligand. All compounds were tested at a broad range of concentrations (10 pM to 10 μM) in duplicates. […] The 96 deep well plates were incubated for 1 hr at 4° C. Incubations were terminated by rapid filtration through Unifilter-96 plates (Packard Instrument Company) and glass filters GF/C (Perkin Elmer) presoaked for 1 hr in polyethylenimine (0.3%) and washed 3 times with 1 ml of cold binding buffer. After addition of 45 μl of Microscint 40 (PerkinElmer) the Unifilter-96 plate was sealed and after 1 hr the ratioactivity counted using a TopCount Microplate Scintillation Counter (Packard Instrument Company).

The target in the next assay is rat TAAR1 (Rattus norvegicus (Rat), UniProt Q923Y9). The assay can be described thus: Radioligand binding assay on rat TAAR1. The conditions noted are these: rat TAAR1, HEK-293 membranes; second value of the pair (line below); read-out: Ki (μM) mouse/rat. As for the experimental part: as §1, §2
Radioligand Binding Assay on Rat TAAR1
as §3
as §4, with “rat” for “mouse”

Where a name gives a salt, the structure may show the parent alone.

Chain of rat TAAR1 (Q923Y9 whole entry): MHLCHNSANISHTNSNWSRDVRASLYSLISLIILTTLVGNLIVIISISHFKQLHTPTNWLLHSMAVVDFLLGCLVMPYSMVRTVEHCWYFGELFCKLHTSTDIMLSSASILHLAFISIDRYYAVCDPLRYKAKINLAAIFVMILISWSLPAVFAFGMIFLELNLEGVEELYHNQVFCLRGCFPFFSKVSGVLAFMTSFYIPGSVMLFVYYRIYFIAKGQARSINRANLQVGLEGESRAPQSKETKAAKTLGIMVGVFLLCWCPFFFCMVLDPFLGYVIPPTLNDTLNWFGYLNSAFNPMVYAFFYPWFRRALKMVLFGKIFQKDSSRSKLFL
Chain of mouse TAAR1 (Q923Y8 whole entry): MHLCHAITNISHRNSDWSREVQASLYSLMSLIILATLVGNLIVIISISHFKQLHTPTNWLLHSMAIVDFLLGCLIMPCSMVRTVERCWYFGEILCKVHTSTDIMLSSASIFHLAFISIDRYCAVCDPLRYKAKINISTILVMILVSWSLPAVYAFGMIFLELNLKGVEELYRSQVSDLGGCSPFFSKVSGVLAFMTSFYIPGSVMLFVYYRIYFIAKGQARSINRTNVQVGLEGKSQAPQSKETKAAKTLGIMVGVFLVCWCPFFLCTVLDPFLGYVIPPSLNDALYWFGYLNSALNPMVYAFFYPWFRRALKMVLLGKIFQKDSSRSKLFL

Regarding `N#Cc1ccc(-n2cc(C(=O)Nc3ccc([C@H]4CNCCO4)cc3Cl)cn2)cc1` [Example 103, (S)—N-(2-Chloro-4-(morpholin-2-yl)phenyl)-1-(4-cyanophenyl)-1H-pyrazole-4-carboxamide hydrochloride], the Ki at mouse TAAR1 turned out to be 0.0052 µM; at rat TAAR1, 0.0031 µM.

As for `N#Cc1cc(NC(=O)Nc2ccc([C@@H]3CNCCO3)cc2F)ccc1F` [Example 63, (R)-1-(3-Cyano-4-fluorophenyl)-3-(2-fluoro-4-(morpholin-2-yl)phenyl)urea], the Ki is 0.0014 µM at mouse TAAR1 and 0.0007 µM at rat TAAR1.

`O=C(Nc1ccc([C@@H]2CNCCO2)cc1Cl)c1ccc(Cl)nc1` [Example 35, (R)-6-Chloro-N-(2-chloro-4-(morpholin-2-yl)phenyl)nicotinamide]: the Ki on mouse TAAR1 came out at 0.0082 µM; at rat TAAR1, 0.111 µM.

As to `N#Cc1cc(F)cc(NC(=O)Nc2ccc([C@H]3CNCCO3)cc2F)c1` [Example 26, 1-(3-Cyano-5-fluoro-phenyl)-3-((S)-2-fluoro-4-morpholin-2-yl-phenyl)-urea], the results for the Ki at mouse TAAR1 and on rat TAAR1 were 0.0012 µM and 0.002 µM, respectively.

For `O=C(Nc1ccc([C@H]2CNCCO2)cc1F)c1cnn(-c2ccc(F)cc2)c1` [Example 22, (S)—N-(2-fluoro-4-(morpholin-2-yl)phenyl)-1-(4-fluorophenyl)-1H-pyrazole-4-carboxamide], the Ki at mouse TAAR1 is 0.002 µM; on rat TAAR1, 0.0036 µM.

Turning to `O=C(Nc1ccc(C(F)(F)F)nc1)Nc1ccc([C@H]2CNCCO2)cc1Cl` [Example 50, (S)-1-(2-Chloro-4-(morpholin-2-yl)phenyl)-3-(6-(trifluoromethyl)pyridin-3-yl)urea], the Ki on mouse TAAR1 was 0.0018 µM; on rat TAAR1, 0.0014 µM.

Regarding `COc1ccc(C#N)cc1NC(=O)Nc1ccc([C@H]2CNCCO2)cc1F` [Example 39, (S)-1-(5-Cyano-2-methoxyphenyl)-3-(2-fluoro-4-(morpholin-2-yl)phenyl)urea hydrochloride], the Ki at mouse TAAR1 worked out at 0.003 µM; at rat TAAR1 it was 0.0085 µM.

For `N#Cc1ccc(OC(F)F)c(NC(=O)Nc2ccc([C@H]3CNCCO3)cc2Cl)c1` [Example 48, (S)-1-(2-Chloro-4-(morpholin-2-yl)phenyl)-3-(5-cyano-2-(difluoromethoxy)phenyl)urea], the results for the Ki on mouse TAAR1 and at rat TAAR1 were 0.0022 µM and 0.0018 µM, respectively.

Consider `N#Cc1ccc(-n2cc(C(=O)Nc3ccc([C@H]4CNCCO4)c(Cl)c3)cn2)c(F)c1` [Example 109, (S)—N-(3-Chloro-4-(morpholin-2-yl)phenyl)-1-(4-cyano-2-fluorophenyl)-1H-pyrazole-4-carboxamide hydrochloride], for which the Ki at mouse TAAR1 was 0.0026 µM; on rat TAAR1, 0.0038 µM.

For the compound `CCOc1ccc(C(=O)Nc2ccc([C@H]3CNCCO3)cc2F)cn1` [Example 138, (S)-6-Ethoxy-N-(2-fluoro-4-(morpholin-2-yl)phenyl)nicotinamide], the results for the Ki at mouse TAAR1 and on rat TAAR1 were 0.0042 µM and 0.308 µM, respectively.

As for `N#Cc1ccc(F)c(NC(=O)Nc2ccc([C@@H]3CNCCO3)cc2F)c1` [Example 56, 1-(5-Cyano-2-fluoro-phenyl)-3-((R)-2-fluoro-4-morpholin-2-yl-phenyl)-urea], the figures for the Ki on mouse TAAR1 and on rat TAAR1 were 0.002 µM and 0.0035 µM, respectively.

Turning to `O=C(Nc1cnc(C(F)(F)F)nc1)Nc1ccc([C@@H]2CNCCO2)cc1Br` [Example 70, 1-((R)-2-Bromo-4-morpholin-2-yl-phenyl)-3-(2-trifluoromethyl-pyrimidin-5-yl)-urea], the Ki at mouse TAAR1 stood at 0.0056 µM; on rat TAAR1, 0.0103 µM.

Regarding `COc1ccc(C#N)cc1NC(=O)Nc1ccc([C@H]2CNCCO2)cc1Br` [Example 58, 1-((S)-2-Bromo-4-morpholin-2-yl-phenyl)-3-(5-cyano-2-methoxy-phenyl)-urea], the Ki was 0.0038 µM on mouse TAAR1 and 0.0161 µM on rat TAAR1.

As to `CCOc1ccc(C(=O)Nc2ccc([C@H]3CNCCO3)c(F)c2)cn1` [Example 89, (S)-6-Ethoxy-N-(3-fluoro-4-(morpholin-2-yl)phenyl)nicotinamide hydrochloride], the Ki on mouse TAAR1 is 0.0024 µM; on rat TAAR1, 0.0254 µM.

Turning to `Cc1cc([C@@H]2CNCCO2)ccc1NC(=O)Nc1ccc(Cl)nc1` [Example 40, (R)-1-(6-Chloropyridin-3-yl)-3-(2-methyl-4-(morpholin-2-yl)phenyl)urea], the Ki at mouse TAAR1 came out at 0.0043 µM; at rat TAAR1, 0.12 µM.

On to `O=C(Nc1ccc([C@H]2CNCCO2)c(F)c1)c1cnn(-c2ccc(C(F)(F)F)nc2)c1` [Example 130, (S)—N-(3-Fluoro-4-(morpholin-2-yl)phenyl)-1-(6-(trifluoromethyl)pyridin-3-yl)-1H-pyrazole-4-carboxamide hydrochloride], for which the values for the Ki on mouse TAAR1 and at rat TAAR1 were 0.0075 µM and 0.0038 µM, respectively.

With `O=C(Nc1ccc(C(F)(F)F)nc1)Nc1ccc([C@H]2CNCCO2)cc1F` [Example 11, 1-((S)-2-Fluoro-4-morpholin-2-yl-phenyl)-3-(6-trifluoromethyl-pyridin-3-yl)-urea], the figures for the Ki on mouse TAAR1 and on rat TAAR1 were 0.0035 µM and 0.0095 µM, respectively.

With `Cc1cc(C(=O)Nc2ccc([C@H]3CNCCO3)c(F)c2)cc(C(N)=O)n1` [Example 114, (S)—N4-(3-Fluoro-4-(morpholin-2-yl)phenyl)-6-methylpyridine-2,4-dicarboxamide hydrochloride], the Ki came to 0.0649 µM at mouse TAAR1 and 0.265 µM on rat TAAR1.

On to `N#Cc1ccc(NC(=O)Nc2ccc([C@@H]3CNCCO3)cc2Br)cn1` [Example 65, (R)-1-(2-bromo-4-(morpholin-2-yl)phenyl)-3-(6-cyanopyridin-3-yl)urea], for which the Ki turned out to be 0.0037 µM at mouse TAAR1 and 0.0218 µM at rat TAAR1.

Regarding `O=C(Nc1ccc(C(F)(F)F)cn1)Nc1ccc([C@H]2CNCCO2)cc1Cl` [Example 53, (S)-1-(2-Chloro-4-(morpholin-2-yl)phenyl)-3-(5-(trifluoromethyl)pyridin-2-yl)urea], the Ki at mouse TAAR1 stood at 0.0015 µM; at rat TAAR1, 0.0017 µM.

Turning to `Cc1cc(C(=O)Nc2ccc([C@H]3CNCCO3)cc2Cl)cc(C(N)=O)n1` [Example 122, (S)—N4-(2-Chloro-4-(morpholin-2-yl)phenyl)-6-methylpyridine-2,4-dicarboxamide hydrochloride], the Ki is 0.14 µM at mouse TAAR1 and 0.758 µM at rat TAAR1.

As to `O=C(Nc1ccc(C(F)(F)F)nc1)Nc1ccc([C@@H]2CNCCO2)cc1F` [Example 10, 1-((R)-2-Fluoro-4-morpholin-2-yl-phenyl)-3-(6-trifluoromethyl-pyridin-3-yl)-urea], the Ki at mouse TAAR1 and at rat TAAR1 was 0.0033 µM each time.
